Experimental data as given in ChEMBL document CHEMBL1201862, “PubChem BioAssay data set” (2004).
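Dose response: 5 concentrations. Exposure: 48 h. Format: 96-well plates. Endpoint: linear interpolation; highest concentration if not reached. Abbreviation: GI50, concentration required for 50% inhibition of growth.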 Calls of active or inactive are those of the source. No stated cut-off is given here; in the data, active = GI50 up to about 1.1 µM and inactive = higher.

What was measured:
Assay in all cases: NCI anticancer screen, dose series, 48 h
MDA-MB-435 = tested on: MDA-MB-435
IGROV-1 = tested on: IGROV-1
Hs-578T = tested on: Hs-578T
MOLT-4 = tested on: MOLT-4
UO-31 = tested on: UO-31
HCT-15 = tested on: HCT-15
T47D = tested on: T47D
NCI-H460 = tested on: NCI-H460
RXF 393 = tested on: RXF 393
OVCAR-8 = tested on: OVCAR-8
SNB-19 = tested on: SNB-19
EKVX = tested on: EKVX
RPMI-8226 = tested on: RPMI-8226
TK-10 = tested on: TK-10
HCT-116 = tested on: HCT-116
A498 = tested on: A498
HCC 2998 = tested on: HCC 2998
M14 = tested on: M14
SF-295 = tested on: SF-295
SK-MEL-2 = tested on: SK-MEL-2

Oc1ccc(Cl)cc1Cc1cc(Cl)cc(Cc2cc(Cl)ccc2O)c1O
GI50 (MDA-MB-435): 2.82 µM (inactive) | GI50 (IGROV-1): 3.2 µM (inactive) | GI50 (Hs-578T): 1.88 µM (inactive) | GI50 (MOLT-4): 2.34 µM (inactive) | GI50 (UO-31): 3.01 µM (inactive) | GI50 (HCT-15): 2.54 µM | GI50 (T47D): 2.07 µM (inactive) | GI50 (NCI-H460): 1.77 µM (inactive) | GI50 (RXF 393): 1.84 µM (inactive) | GI50 (OVCAR-8): 3.43 µM (inactive) | GI50 (SNB-19): 2.56 µM (inactive) | GI50 (EKVX): 2.33 µM (inactive) | GI50 (RPMI-8226): 0.91 µM (active) | GI50 (TK-10): 2.72 µM (inactive) | GI50 (HCT-116): 2.28 µM (inactive) | GI50 (A498): 1.46 µM (inactive) | GI50 (HCC 2998): 0.836 µM (active) | GI50 (M14): 2.39 µM (inactive) | GI50 (SF-295): 2.29 µM (inactive) | GI50 (SK-MEL-2): 2.61 µM (inactive)

NC(=O)ON=C1CCN(Cc2ccccc2)CC1
GI50 (MDA-MB-435): > 100 µM (inactive) | GI50 (IGROV-1): > 100 µM (inactive) | GI50 (Hs-578T): > 100 µM (inactive) | GI50 (MOLT-4): > 100 µM (inactive) | GI50 (UO-31): > 100 µM (inactive) | GI50 (HCT-15): > 100 µM | GI50 (T47D): > 100 µM (inactive) | GI50 (NCI-H460): > 100 µM (inactive) | GI50 (RXF 393): > 100 µM (inactive) | GI50 (OVCAR-8): > 100 µM (inactive) | GI50 (SNB-19): > 100 µM (inactive) | GI50 (EKVX): > 100 µM (inactive) | GI50 (RPMI-8226): > 100 µM (inactive) | GI50 (TK-10): 29.9 µM (inactive) | GI50 (HCT-116): > 100 µM (inactive) | GI50 (A498): > 100 µM (inactive) | GI50 (HCC 2998): > 100 µM (inactive) | GI50 (M14): > 100 µM (inactive) | GI50 (SF-295): > 100 µM (inactive) | GI50 (SK-MEL-2): > 100 µM (inactive)

COC1=CC(=O)c2c(c(COP(=O)(N(C)CCBr)N(C)CCBr)cn2C)C1=O
GI50 (MDA-MB-435): 0.0588 µM (active) | GI50 (IGROV-1): 1.17 µM (inactive) | GI50 (Hs-578T): 0.392 µM (active) | GI50 (MOLT-4): < 0.01 µM (active) | GI50 (UO-31): < 0.0261 µM (active) | GI50 (HCT-15): < 0.0234 µM | GI50 (T47D): 1.31 µM (inactive) | GI50 (NCI-H460): < 0.01 µM (active) | GI50 (RXF 393): 0.0574 µM (active) | GI50 (OVCAR-8): < 0.0264 µM (active) | GI50 (SNB-19): 0.141 µM (active) | GI50 (EKVX): 0.211 µM (active) | GI50 (RPMI-8226): 0.0323 µM (active) | GI50 (TK-10): 0.17 µM (active) | GI50 (HCT-116): < 0.01 µM (active) | GI50 (A498): 0.279 µM (active) | GI50 (HCC 2998): 0.0373 µM (active) | GI50 (M14): < 0.0178 µM (active) | GI50 (SF-295): < 0.01 µM (active) | GI50 (SK-MEL-2): 0.15 µM (active)

Cc1sc2nc(-c3ccc([N+](=O)[O-])cc3)c(/C=N/N=C(N)N)n2c1C
GI50 (MDA-MB-435): 0.979 µM (active) | GI50 (IGROV-1): 1.4 µM (inactive) | GI50 (Hs-578T): 1.61 µM (inactive) | GI50 (MOLT-4): 0.83 µM (active) | GI50 (UO-31): 1.62 µM (inactive) | GI50 (HCT-15): 1.35 µM | GI50 (T47D): 0.664 µM (active) | GI50 (NCI-H460): 1.75 µM (inactive) | GI50 (RXF 393): 0.942 µM (active) | GI50 (OVCAR-8): 0.53 µM (active) | GI50 (SNB-19): 0.721 µM (active) | GI50 (EKVX): 1.17 µM (inactive) | GI50 (RPMI-8226): 0.468 µM (active) | GI50 (TK-10): 1.5 µM (inactive) | GI50 (HCT-116): 0.173 µM (active) | GI50 (A498): 1.87 µM (inactive) | GI50 (HCC 2998): 0.175 µM (active) | GI50 (M14): 0.67 µM (active) | GI50 (SF-295): 1.16 µM (inactive) | GI50 (SK-MEL-2): 0.457 µM (active)

COC(=O)/C=C1\C(=O)C=C2[C@@H]3C[C@H]4C[C@H](CC[C@@]4(C)N21)C3(C)NC(C)=O (stereo not given in full)
GI50 (MDA-MB-435): 9.02 µM (inactive) | GI50 (IGROV-1): 20 µM (inactive) | GI50 (Hs-578T): 10.9 µM (inactive) | GI50 (MOLT-4): 3.33 µM (inactive) | GI50 (UO-31): 19.5 µM (inactive) | GI50 (HCT-15): 11.5 µM | GI50 (T47D): 7.23 µM (inactive) | GI50 (NCI-H460): 29.8 µM (inactive) | GI50 (RXF 393): 4.51 µM (inactive) | GI50 (OVCAR-8): 16.6 µM (inactive) | GI50 (SNB-19): 25.9 µM (inactive) | GI50 (EKVX): 11.4 µM (inactive) | GI50 (RPMI-8226): 4.06 µM (inactive) | GI50 (TK-10): 15.7 µM (inactive) | GI50 (HCT-116): 8.97 µM (inactive) | GI50 (A498): 19 µM (inactive) | GI50 (HCC 2998): 26.9 µM (inactive) | GI50 (M14): 8.91 µM (inactive) | GI50 (SF-295): 19.5 µM (inactive) | GI50 (SK-MEL-2): 18.4 µM (inactive)

C=C(Br)CNCC(=C)Br
GI50 (MDA-MB-435): > 100 µM (inactive) | GI50 (IGROV-1): > 100 µM (inactive) | GI50 (Hs-578T): > 100 µM (inactive) | GI50 (MOLT-4): 48.6 µM (inactive) | GI50 (UO-31): > 100 µM (inactive) | GI50 (HCT-15): > 100 µM | GI50 (T47D): > 100 µM (inactive) | GI50 (NCI-H460): > 100 µM (inactive) | GI50 (RXF 393): > 100 µM (inactive) | GI50 (OVCAR-8): > 100 µM (inactive) | GI50 (SNB-19): > 100 µM (inactive) | GI50 (EKVX): > 100 µM (inactive) | GI50 (RPMI-8226): 51.9 µM (inactive) | GI50 (TK-10): > 100 µM (inactive) | GI50 (HCT-116): 68.1 µM (inactive) | GI50 (A498): > 100 µM (inactive) | GI50 (HCC 2998): > 100 µM (inactive) | GI50 (M14): > 100 µM (inactive) | GI50 (SF-295): > 100 µM (inactive) | GI50 (SK-MEL-2): > 100 µM (inactive)

CN(C)C[C@H]1CC[C@@H](CN(C)C)C1=O
GI50 (MDA-MB-435): 9.66 µM (inactive) | GI50 (IGROV-1): 15.2 µM (inactive) | GI50 (Hs-578T): 18.7 µM (inactive) | GI50 (MOLT-4): 1.23 µM (inactive) | GI50 (UO-31): 14.9 µM (inactive) | GI50 (HCT-15): 4.65 µM | GI50 (T47D): 7.03 µM (inactive) | GI50 (NCI-H460): 19.5 µM (inactive) | GI50 (RXF 393): 9.29 µM (inactive) | GI50 (OVCAR-8): 9.08 µM (inactive) | GI50 (SNB-19): > 50 µM (inactive) | GI50 (EKVX): 16.7 µM (inactive) | GI50 (RPMI-8226): 0.535 µM (active) | GI50 (TK-10): 8.11 µM (inactive) | GI50 (HCT-116): 8.32 µM (inactive) | GI50 (A498): 49.2 µM (inactive) | GI50 (HCC 2998): > 29.6 µM (inactive) | GI50 (M14): 8.77 µM (inactive) | GI50 (SF-295): 48.9 µM (inactive) | GI50 (SK-MEL-2): 7.73 µM (inactive)

CSC(SC)=C(C(=O)c1ccc(Cl)cc1)n1c(=O)sc2cc(Br)ccc21
GI50 (MDA-MB-435): > 100 µM (inactive) | GI50 (IGROV-1): > 100 µM (inactive) | GI50 (Hs-578T): > 100 µM (inactive) | GI50 (MOLT-4): 18.7 µM (inactive) | GI50 (UO-31): > 100 µM (inactive) | GI50 (HCT-15): > 100 µM | GI50 (T47D): > 100 µM (inactive) | GI50 (NCI-H460): > 100 µM (inactive) | GI50 (RXF 393): > 100 µM (inactive) | GI50 (OVCAR-8): > 100 µM (inactive) | GI50 (SNB-19): > 100 µM (inactive) | GI50 (EKVX): > 100 µM (inactive) | GI50 (RPMI-8226): > 100 µM (inactive) | GI50 (TK-10): > 100 µM (inactive) | GI50 (HCT-116): 51.3 µM (inactive) | GI50 (A498): > 100 µM (inactive) | GI50 (HCC 2998): > 100 µM (inactive) | GI50 (M14): > 100 µM (inactive) | GI50 (SF-295): > 100 µM (inactive) | GI50 (SK-MEL-2): > 100 µM (inactive)

Cc1oc(N)c(S(=O)(=O)c2ccc(Cl)cc2)c1C
GI50 (MDA-MB-435): 55.3 µM (inactive) | GI50 (IGROV-1): 85.5 µM (inactive) | GI50 (Hs-578T): 50.7 µM (inactive) | GI50 (MOLT-4): 47.3 µM (inactive) | GI50 (UO-31): 37 µM (inactive) | GI50 (HCT-15): 34 µM | GI50 (T47D): 31.2 µM (inactive) | GI50 (NCI-H460): 22.2 µM (inactive) | GI50 (RXF 393): 30.8 µM (inactive) | GI50 (OVCAR-8): 50.5 µM (inactive) | GI50 (SNB-19): > 100 µM (inactive) | GI50 (EKVX): 45 µM (inactive) | GI50 (RPMI-8226): 40.2 µM (inactive) | GI50 (TK-10): 83.6 µM (inactive) | GI50 (HCT-116): 39.4 µM (inactive) | GI50 (A498): > 100 µM (inactive) | GI50 (HCC 2998): 23.8 µM (inactive) | GI50 (M14): 29.6 µM (inactive) | GI50 (SF-295): 39.5 µM (inactive) | GI50 (SK-MEL-2): 28 µM (inactive)

C[C@@H]1C[C@@H](O)[C@@]2(O)C13CC(=O)OC(C3)[C@@H](C)[C@@]2(C)CO (stereo not given in full)
GI50 (MDA-MB-435): > 100 µM (inactive) | GI50 (IGROV-1): > 100 µM (inactive) | GI50 (Hs-578T): > 100 µM (inactive) | GI50 (MOLT-4): > 100 µM (inactive) | GI50 (UO-31): > 100 µM (inactive) | GI50 (HCT-15): > 100 µM | GI50 (T47D): > 100 µM (inactive) | GI50 (NCI-H460): > 100 µM (inactive) | GI50 (RXF 393): > 100 µM (inactive) | GI50 (OVCAR-8): > 100 µM (inactive) | GI50 (SNB-19): > 100 µM (inactive) | GI50 (EKVX): > 100 µM (inactive) | GI50 (RPMI-8226): > 100 µM (inactive) | GI50 (TK-10): > 100 µM (inactive) | GI50 (HCT-116): > 100 µM (inactive) | GI50 (A498): > 100 µM (inactive) | GI50 (HCC 2998): > 100 µM (inactive) | GI50 (M14): > 100 µM (inactive) | GI50 (SF-295): > 100 µM (inactive) | GI50 (SK-MEL-2): > 100 µM (inactive)
